# Values joined by “and” are separate entries in the source; they are usually repeats but may differ in a detail not shown here. Equal entries are not always repeated.
# System: children with PFIC1 or PFIC2
# Test: PEDFIC 1 phase 3 randomized, double-blind, placebo-controlled trial: efficacy (pruritus, serum bile acids, hepatic parameters, growth, sleep)
# Type: in vivo, human
# Settings: for Proportion of Positive Pruritus Assessments Over the Treatment Period, Mean (SE) / Proportion of Positive Pruritus Assessments, Mean Difference vs Placebo (least squares means): 24 weeks; for least squares mean treatment difference vs placebo in proportion of positive pruritus assessments / least square mean proportion of positive pruritus assessments at the patient level: over 24 weeks; for least square mean proportion of positive pruritus assessments at the patient level: ObsRO
# Procedure: Odevixibat is an orally administered, potent, luminally restricted, selective IBAT inhibitor in development to treat cholestatic liver diseases. In this phase 3, randomized, 24-week trial (PEDFIC 1), the efficacy and safety of odevixibat versus placebo was evaluated in children with PFIC1 or PFIC2. The efficacy of odevixibat in patients with PFIC was evaluated a 24-week, randomized, double-blind, placebo-controlled trial conducted in 62 patients with a confirmed diagnosis of PFIC Type 1 or Type 2 (NCT03566238; European Union (EU), 2017-002338-21; PEDFIC1; FIG. 1). Patients were randomized 1:1:1 to placebo, or 40 or 120 μg/kg odevixibat and stratified by PFIC Type (1 or 2) and age (6 months to 5 years, 6 to 12 years, and 13 to ≤18 years). Patients with pathologic variations of the ABCB11 gene that predict complete absence of the bile salt export pump (BSEP) protein and those with alanine aminotransferase (ALT)>10×ULN or bilirubin>5×ULN were excluded from the study.
# The study consisted of a screening phase and parallel-design treatment period (FIG. 1). Two screening visits occurred: the first took place during days −56 to −35 prior to the first dose of study drug and the second occurred during days −28 to −7. On day 0, all eligible patients were randomized 1:1:1 to oral, once-daily placebo, 40 μg/kg/day odevixibat, or 120 μg/kg/day odevixibat. After written informed consent was obtained, an 8-digit patient identification number was assigned by the Interactive Web Response System (IWRS). The first two digits denoted country, followed by a 3-digit site number, and a 3-digit patient sequence number. The randomization codes were computer generated by a biostatistician at ICON Clinical Research Ltd (Dublin, Ireland) and kept by an unblinded statistician at Firma Clinical Research (Chicago, IL, USA), independent from the project team. Patients deemed eligible for randomization were assigned a unique 4 digit randomization number by the IWRS that identified which treatment was allocated to the patient. Randomization was done in a block size of six and stratified according to PFIC type 1 or 2 and age group (6 months to 5 years, 6 to 12 years, and 13 to ≤18 years) to ensure approximate balance between dose schemes (1:1:1). A separate randomization list was prepared for the patients who had taken part in study A4250-003, regardless of stratification. Randomization codes were assigned sequentially as patients became eligible for randomization. The IWRS system assigned a study drug number(s) corresponding to the randomization arm at each dispensing visit. A 5-digit study drug number identified study drug packs and was detailed on the study drug label.
# Treatment was dispensed during on-site clinic visits, and patients or caregivers were instructed to take or administer the study drug at home each morning, either as an intact capsule(s) (swallowed with a glass of water and with food) or sprinkled on soft, room-temperature food (e.g., applesauce, followed by water). The double-blind PEDFIC 1 treatment period lasted 24 weeks.
# Children (aged 0.5 to 18 years) with genetic confirmation of biallelic pathogenic mutations in the ATP8B1 (i.e., PFIC1) or ABCB11 genes (i.e., PFIC2), elevated serum bile acids (≥100 μmol/L), history of significant pruritus, and an average caregiver-reported observed scratching score ≥2 (calculated from daily electronic diary [eDiary] entries) in the 14 days prior to randomization, were eligible for inclusion. Additionally, caregivers or age-appropriate patients (≥8 years of age) agreed to use the eDiary device to record symptoms. Patients with two mutations in ABCB11 predicting a complete absence of functional bile salt export pump protein were excluded.
# Two different primary endpoints were evaluated. The first primary endpoint in this study was the proportion of positive pruritus assessments at the patient level over the 24-week treatment period based on an observer-reported outcome (ObsRO) instrument. […]
compound,measurement,setting,value
"CCCCC1(CCCC)CN(c2ccccc2)c2cc(SC)c(OCC(=O)N[C@@H](C(=O)N[C@@H](CC)C(=O)O)c3ccc(O)cc3)cc2S(=O)(=O)N1 [Odevixibat, 1,1-dioxo-3,3-dibutyl-5-phenyl-7-methylthio-8-(N-{(R)-α-[N-((S)-1-carboxypropyl)carbamoyl]-4-hydroxybenzyl}carbamoylmethoxy)-2,3,4,5-tetrahydro-1,2,5-benzothiadiazepine]","Patients with Reduction in Serum Bile Acids, % Difference vs Placebo","PEDFIC 1, 40 μg/kg/day",44.1%
same,mean percentage difference vs placebo in patients who met the serum bile acid reduction endpoint,"PEDFIC 1, 40 μg/kg/day",44.1%
same,"Proportion of Positive Pruritus Assessments Over the Treatment Period, Mean (SE)","PEDFIC 1, 40 μg/kg/day (n = 23)",58.31 (6.205)
same,"Proportion of Positive Pruritus Assessments, Mean Difference vs Placebo (least squares means)","PEDFIC 1, 40 μg/kg/day",28.23 (9.182)
same,"Autotaxin, change from baseline to week 24, mean","PEDFIC 1, 40 μg/kg/day, n 14",-1698 ng/mL
same,"APRI, change from baseline to week 24, mean","PEDFIC 1, 40 μg/kg/day, n 15",−0.1
same,"C4 (7alpha-hydroxy-4-cholesten-3-one), change from baseline to week 24, mean","PEDFIC 1, 40 μg/kg/day, n 15",15.7 ng/mL
same,"FIB-4, change from baseline to week 24, mean","PEDFIC 1, 40 μg/kg/day, n 15",0.0
same,"PELD/MELD, change from baseline to week 24, mean","PEDFIC 1, 40 μg/kg/day, n 15",−2.4
same,"GGT, change from baseline to week 24, mean (SE)","PEDFIC 1, 40 μg/kg/day, n 17",−3 (2) U/L
same,"Serum AST, change from baseline to week 24, mean","PEDFIC 1, 40 μg/kg/day, n 17",−37 U/L
same,"Total bilirubin, change from baseline to week 24, mean","PEDFIC 1, 40 μg/kg/day, n 17",-1.4 mg/dL
same,Proportion of Patients with Reduction in Serum Bile Acids at End of Treatment,"PEDFIC 1, 40 μg/kg/day, n = 23",10 (43.5) n (%)
same,least squares mean treatment difference vs placebo in proportion of positive pruritus assessments,"PEDFIC 1, 40 μg/kg/day",28.2%
same,least square mean proportion of positive pruritus assessments at the patient level,"PEDFIC 1, 40 μg/kg/day",58%
same,proportion of patients achieving a serum bile acid response (≥70% reduction or ≤70 μmol/L),"PEDFIC 1, 40 μg/kg/day, week 24",44%
same,mean (SE) change from baseline to end of treatment in height z-score,"PEDFIC 1, 40 μg/kg/day, placebo 0.10 (0.102)",0.29 (0.106)
same,mean (SE) change from baseline to end of treatment in ALT,"PEDFIC 1, 40 μg/kg/day, placebo 3.7 (4.95)",−27.9 (17.97) U/L
same,mean change from baseline to end of treatment in percentage of days sleeping with the caregiver,"PEDFIC 1, 40 μg/kg/day, placebo −5.5%",−49.4%
same,mean change from baseline to end of treatment in percentage of days requiring soothing,"PEDFIC 1, 40 μg/kg/day, placebo −7.6%",−51.5%
same,"Patients with Reduction in Serum Bile Acids, % Difference vs Placebo","PEDFIC 1, 120 μg/kg/day",21.6%
same,mean (SE) change from baseline to end of treatment in ALT,"PEDFIC 1, 120 μg/kg/day",−25.3 (22.47) U/L
same,mean (SE) change from baseline to end of treatment in height z-score,"PEDFIC 1, 120 μg/kg/day",0.15 (0.124)
same,mean change from baseline to end of treatment in percentage of days requiring soothing,"PEDFIC 1, 120 μg/kg/day",−34.9%
same,mean change from baseline to end of treatment in percentage of days sleeping with the caregiver,"PEDFIC 1, 120 μg/kg/day",−33.1%
same,mean percentage difference vs placebo in patients who met the serum bile acid reduction endpoint,"PEDFIC 1, 120 μg/kg/day",21.6%
same,"Proportion of Positive Pruritus Assessments Over the Treatment Period, Mean (SE)","PEDFIC 1, 120 μg/kg/day (n = 19)",47.69 (8.110)
same,"Proportion of Positive Pruritus Assessments, Mean Difference vs Placebo (least squares means)","PEDFIC 1, 120 μg/kg/day",21.71 (9.892)
same,"APRI, change from baseline to week 24, mean","PEDFIC 1, 120 μg/kg/day, n 8",0.0
same,"FIB-4, change from baseline to week 24, mean","PEDFIC 1, 120 μg/kg/day, n 8",0.1
same,"Autotaxin, change from baseline to week 24, mean","PEDFIC 1, 120 μg/kg/day, n 12",-1018 ng/mL
same,"C4 (7alpha-hydroxy-4-cholesten-3-one), change from baseline to week 24, mean","PEDFIC 1, 120 μg/kg/day, n 12",15.8 ng/mL
same,"PELD/MELD, change from baseline to week 24, mean","PEDFIC 1, 120 μg/kg/day, n 14",−1.1
same,"GGT, change from baseline to week 24, mean (SE)","PEDFIC 1, 120 μg/kg/day, n 15",−1 (1) U/L
same,"Serum AST, change from baseline to week 24, mean","PEDFIC 1, 120 μg/kg/day, n 15",−27 U/L
same,"Total bilirubin, change from baseline to week 24, mean","PEDFIC 1, 120 μg/kg/day, n 15",-1.1 mg/dL
same,Proportion of Patients with Reduction in Serum Bile Acids at End of Treatment,"PEDFIC 1, 120 μg/kg/day, n = 19",4 (21.1) n (%)
same,least squares mean treatment difference vs placebo in proportion of positive pruritus assessments,"PEDFIC 1, 120 μg/kg/day",21.7%
same,least square mean proportion of positive pruritus assessments at the patient level,"PEDFIC 1, 120 μg/kg/day",52%
same,proportion of patients achieving a serum bile acid response (≥70% reduction or ≤70 μmol/L),"PEDFIC 1, 120 μg/kg/day, week 24",21%
same,"percentage of days seeing blood due to scratching, number of awakenings, percentage of days taking medications to induce sleep: odevixibat vs placebo","PEDFIC 1, 24 weeks",no clear differences
same,reduction of autotaxin levels,"PEDFIC 1, 24 weeks of treatment",approximately half
same,"Patients with Reduction in Serum Bile Acids, % Difference vs Placebo","PEDFIC 1, Total odevixibat",30.7%
same,"Proportion of Positive Pruritus Assessments Over the Treatment Period, Mean (SE)","PEDFIC 1, Total odevixibat (N = 42), placebo 28.74 (5.209)",53.51 (5.006)
same,Proportion of Patients with Reduction in Serum Bile Acids at End of Treatment,"PEDFIC 1, Total odevixibat (N = 42), placebo 0",14 (33.3) n (%)
same,"Proportion of Positive Pruritus Assessments, Mean Difference vs Placebo (least squares means)","PEDFIC 1, Total odevixibat",24.97 (8.240)
same,patients undergoing surgical interruption of the enterohepatic circulation or liver transplantation,"PEDFIC 1, all 62 patients, during the study",None
same,mean (SE) change from baseline in ObsRO pruritus score (mean monthly),"PEDFIC 1, all doses, baseline to weeks 21 through 24, placebo −0.25 (0.2)",−1.11 (0.2)
same,"APRI, change from baseline to week 24, mean","PEDFIC 1, all doses, n 23",−0.1
same,"FIB-4, change from baseline to week 24, mean","PEDFIC 1, all doses, n 23",0.0
same,"Autotaxin, change from baseline to week 24, mean","PEDFIC 1, all doses, n 26",-1384 ng/mL
same,"C4 (7alpha-hydroxy-4-cholesten-3-one), change from baseline to week 24, mean","PEDFIC 1, all doses, n 27",15.7 ng/mL
same,"PELD/MELD, change from baseline to week 24, mean","PEDFIC 1, all doses, n 29",−1.8
same,"GGT, change from baseline to week 24, mean (SE)","PEDFIC 1, all doses, n 32",−2 (1) U/L
same,"Serum AST, change from baseline to week 24, mean","PEDFIC 1, all doses, n 32",−32 U/L
same,"Total bilirubin, change from baseline to week 24, mean","PEDFIC 1, all doses, n 32",-1.3 mg/dL
same,least square mean proportion of positive pruritus assessments at the patient level,"PEDFIC 1, all doses, placebo 30%",55% and 55.1%
same,proportion of patients achieving a serum bile acid response (≥70% reduction or ≤70 μmol/L),"PEDFIC 1, all doses, week 24, placebo 0",33% and 33.3%
same,mean (SE) change in serum ALT,"PEDFIC 1, all doses, week 24, placebo 3.7 (5.0)",−26.7 (14.0) U/L
same,"proportion of patients with clinically meaningful change in pruritus (≥1-point decrease, mean monthly score)","PEDFIC 1, all doses, week 24, placebo 11%",43%
same,mean change in serum bile acid levels,"PEDFIC 1, all doses, weeks 22 through 24 / end of treatment, placebo +13.1",-114.3 µmol/L
same,mean pruritus score change from baseline to end of treatment,"PEDFIC 1, all doses, placebo −0.25, scale 0-4",−1.13
same,mean change in daytime tiredness score (0-4),"PEDFIC 1, odevixibat overall, baseline to weeks 21 to 24, placebo −0.49",−0.99
same,mean change from baseline in percentage of days needing help falling asleep,"PEDFIC 1, odevixibat overall, weeks 21 to 24, placebo −3%",−43%
same,mean change from baseline in percentage of days sleeping with the caregiver,"PEDFIC 1, odevixibat overall, weeks 21 to 24, placebo −6%",−42%
same,mean change from baseline in percentage of days with soothing,"PEDFIC 1, odevixibat overall, weeks 21 to 24, placebo −8%",−44%
same,mean (SE) change from baseline to week 24 in weight Z-score,"PEDFIC 1, patients treated with odevixibat, placebo 0.1 (0.1)",0.2 (0.1)
same,mean (SE) change from baseline to week 24 in height Z-score,"PEDFIC 1, patients treated with odevixibat, placebo −0.2 (0.1)",0.0 (0.1)
same,proportion of patients who met serum bile acid response criteria,"PEDFIC 1, patients with PFIC1, week 24",17%
same,proportion of patients who met serum bile acid response criteria,"PEDFIC 1, patients with PFIC2, week 24",40%

# Source: US12447156B2, “Treating progressive familial intrahepatic cholestasis (PFIC) with IBAT inhibitors” (ALBIREO AB, priority 2020, dated 2025)
